pIC50: −log10 of the molar value. Values joined by “and” are separate entries in the source; they are usually repeats but may differ in a detail not shown here. Equal values may be shown once. Active and inactive are the calls of the source. The rule behind the calls is not given here.
target: glucose-6-phosphate dehydrogenase-6-phosphogluconolactonase (Plasmodium falciparum 3D7); assay: inhibition of P. falciparum G6PD activity – biochemical, end-point NADPH detection, orthogonal assay, SAR follow-up (AID 588588); details: recombinant PfG6PD-6PGL, direct NADPH end-point detection

Row | Compound | IC50 | pIC50
1 | CCOc1ccc(C(=O)Nc2nnc(S(=O)(=O)N3CCCCCC3)s2)cc1 | > 80 µM (inactive) | –
2 | O=C(Nc1nnc(S(=O)(=O)N2CCCCCC2)s1)c1cccc(Br)c1 | > 80 µM (inactive) | –
3 | CCN(CC)CCNC(=O)c1ccc2c(c1)NC(=O)CO2 | > 80 µM (inactive) | –
4 | COc1cccc(/C=C2/Sc3ccc(C(=O)NCCN4CCCCCC4)cc3NC2=O)c1 | > 80 µM (inactive) | –
5 | CN(C)CCNC(=O)c1ccc2c(c1)NC(=O)/C(=C/c1ccccc1F)S2 | > 80 µM (inactive) | –
6 | Cc1cccc(/C=C2/Sc3ccc(C(=O)NCCN4CCCC4)cc3NC2=O)c1 | > 80 µM (inactive) | –
7 | O=C1Nc2cc(C(=O)NCCN3CCCCCC3)ccc2S/C1=C/c1ccccc1Cl | > 80 µM (inactive) | –
8 | Cc1cccc(C(=O)Nc2nnc(S(=O)(=O)N3CCCCCC3)s2)c1 | > 80 µM (inactive) | –
9 | CCN1CCCC1CNC(=O)c1ccc2c(c1)NC(=O)/C(=C/c1ccccc1)S2 (stereo unspecified) | > 80 µM (inactive) | –
10 | CC1Cc2ccccc2N1S(=O)(=O)c1nnc(NC(=O)c2cccc(Br)c2)s1 (stereo unspecified) | > 80 µM (inactive) | –
11 | CCN(CC)CCNC(=O)c1ccc2c(c1)NC(=O)/C(=C\c1ccccc1Cl)S2 | > 80 µM (inactive) | –
12 | CCN1CCCC1CNC(=O)c1ccc2c(c1)NC(=O)c1ccccc1O2 (stereo unspecified) | – | 4.62
13 | COc1ccc(/C=C2/Sc3ccc(C(=O)NCCN(C)C)cc3NC2=O)cc1 | > 80 µM (inactive) | –
14 | O=C(Nc1nnc(S(=O)(=O)N2CCCCCC2)s1)c1ccccc1F | > 80 µM (inactive) | –
15 | Cc1cccc(C(=O)Nc2nnc(S(=O)(=O)N3CCCc4ccccc43)s2)c1 | > 80 µM (inactive) | –
16 | CCN1CCCC1CNC(=O)c1ccc2c(c1)N(Cc1cccc(F)c1)C(=O)c1ccccc1S2 (stereo unspecified) | > 80 µM (inactive) | –
17 | O=C(Nc1nnc(S(=O)(=O)N2CCCc3ccccc32)s1)c1cccc(F)c1 | > 80 µM (inactive) | –
18 | COc1ccccc1C(=O)Nc1nnc(S(=O)(=O)N2CCCCCC2)s1 | > 80 µM (inactive) | –
19 | CCN(CC)CCNC(=O)c1ccc2c(c1)NC(=O)/C(=C\c1ccccc1F)S2 | > 80 µM (inactive) | –
20 | CN(CCNC(=O)c1ccc2c(c1)NC(=O)c1ccccc1S2)C1CCCCC1 | > 80 µM (inactive) | –
21 | CCCN(CCC)CCNC(=O)c1ccc2c(c1)NC(=O)/C(=C\c1ccc(C)cc1)S2 | > 80 µM (inactive) | –
22 | Cc1cccc(N2CCN(CCNC(=O)c3ccc4c(c3)NC(=O)c3ccccc3S4)CC2)c1C | > 80 µM (inactive) | –
23 | CCN1CCCC1CNC(=O)c1ccc2c(c1)NC(=O)/C(=C\c1ccccc1F)S2 (stereo unspecified) | > 80 µM (inactive) | –

Row | Compound | IC50 | pIC50
24 | O=C(Nc1nnc(S(=O)(=O)N2CCOCC2)s1)c1cccc(F)c1 | > 80 µM (inactive) | –
25 | CN1CCN(C(=O)c2ccc3c(c2)NC(=O)/C(=C/c2ccccc2Cl)S3)CC1 | > 80 µM (inactive) | –
26 | Cc1cccc(C(=O)Nc2nnc(S(=O)(=O)N3c4ccccc4CC3C)s2)c1 (stereo unspecified) | > 80 µM (inactive) | –
27 | CN(C)CCNC(=O)c1ccc2c(c1)NC(=O)/C(=C\c1ccccc1F)S2 | > 80 µM (inactive) | –
28 | O=C(Nc1nnc(S(=O)(=O)N2CCCCCC2)s1)c1ccco1 | > 80 µM (inactive) | –
29 | O=C(NCCN1CCCC1)c1ccc2c(c1)NC(=O)c1ccccc1S2 | > 80 µM (inactive) | –
30 | Cc1ccc(CN2C(=O)c3ccccc3Sc3ccc(C(=O)NCCN(C)C)cc32)cc1 | > 80 µM (inactive) | –
31 | O=C1Nc2cc(C(=O)NCCN3CCCC3)ccc2S/C1=C\c1ccccc1F | > 80 µM (inactive) | –
32 | CCN(CC)CCNC(=O)c1ccc2c(c1)NC(=O)c1ccccc1O2 | > 80 µM (inactive) | –
33 | O=C(Nc1nnc(S(=O)(=O)N2CCCCCC2)s1)c1ccc(F)cc1 | > 80 µM (inactive) | –
34 | CCN1CCCC1CNC(=O)c1ccc2c(c1)NC(=O)/C(=C\c1ccccc1Cl)S2 (stereo unspecified) | > 80 µM (inactive) | –
35 | COc1ccc(/C=C2/Sc3ccc(C(=O)NCCN4CCCCCC4)cc3NC2=O)cc1 | > 80 µM (inactive) | –
36 | COc1ccc(C(=O)Nc2nnc(S(=O)(=O)N3CCCCCC3)s2)cc1 | > 80 µM (inactive) | –
37 | CCN(CC)CCNC(=O)c1ccc2c(c1)NC(=O)c1ccccc1S2 | – | 4.17 and 4.16
38 | O=C1Nc2cc(C(=O)NCCN3CCCCC3)ccc2S/C1=C\c1ccccc1F | > 80 µM (inactive) | –
39 | CCN(CC)CCNC(=O)c1ccc2c(c1)NC(=O)/C(=C\c1ccc(OC)cc1)S2 | > 80 µM (inactive) | –
40 | O=C1Nc2cc(C(=O)NCCN3CCOCC3)ccc2S/C1=C\c1ccccc1F | > 80 µM (inactive) | –
41 | O=C1COc2ccc(C(=O)NCCN3CCOCC3)cc2N1 | > 80 µM (inactive) | –
42 | CCN(CC)CCNC(=O)c1ccc2c(c1)N(Cc1ccc(C)cc1)C(=O)c1ccccc1S2 | > 80 µM (inactive) | –
43 | COc1cccc(/C=C2/Sc3ccc(C(=O)NCCN4CCCC4)cc3NC2=O)c1 | > 80 µM (inactive) | –
44 | CCN(CC)CCNC(=O)c1ccc2c(c1)NC(=O)/C(=C\c1cccc(C)c1)S2 | > 80 µM (inactive) | –
45 | CCN(CC)CCNC(=O)c1ccc2c(c1)NC(=O)/C(=C/c1ccccc1)S2 | > 80 µM (inactive) | –
46 | Cc1cccc(C(=O)Nc2nnc(S(=O)(=O)N3CCC(C)CC3)s2)c1 | > 80 µM (inactive) | –
